Data on 4 compounds can be found in BindingDB's records for doi:10.1021/jm0704898 (Georgetown University Medical Center, 2007).

The target of experiment [1] is T1, Suppressor of tumorigenicity 14 protein (Homo sapiens, UniProt Q9Y5Y6).
T1 sequence (Q9Y5Y6 whole entry): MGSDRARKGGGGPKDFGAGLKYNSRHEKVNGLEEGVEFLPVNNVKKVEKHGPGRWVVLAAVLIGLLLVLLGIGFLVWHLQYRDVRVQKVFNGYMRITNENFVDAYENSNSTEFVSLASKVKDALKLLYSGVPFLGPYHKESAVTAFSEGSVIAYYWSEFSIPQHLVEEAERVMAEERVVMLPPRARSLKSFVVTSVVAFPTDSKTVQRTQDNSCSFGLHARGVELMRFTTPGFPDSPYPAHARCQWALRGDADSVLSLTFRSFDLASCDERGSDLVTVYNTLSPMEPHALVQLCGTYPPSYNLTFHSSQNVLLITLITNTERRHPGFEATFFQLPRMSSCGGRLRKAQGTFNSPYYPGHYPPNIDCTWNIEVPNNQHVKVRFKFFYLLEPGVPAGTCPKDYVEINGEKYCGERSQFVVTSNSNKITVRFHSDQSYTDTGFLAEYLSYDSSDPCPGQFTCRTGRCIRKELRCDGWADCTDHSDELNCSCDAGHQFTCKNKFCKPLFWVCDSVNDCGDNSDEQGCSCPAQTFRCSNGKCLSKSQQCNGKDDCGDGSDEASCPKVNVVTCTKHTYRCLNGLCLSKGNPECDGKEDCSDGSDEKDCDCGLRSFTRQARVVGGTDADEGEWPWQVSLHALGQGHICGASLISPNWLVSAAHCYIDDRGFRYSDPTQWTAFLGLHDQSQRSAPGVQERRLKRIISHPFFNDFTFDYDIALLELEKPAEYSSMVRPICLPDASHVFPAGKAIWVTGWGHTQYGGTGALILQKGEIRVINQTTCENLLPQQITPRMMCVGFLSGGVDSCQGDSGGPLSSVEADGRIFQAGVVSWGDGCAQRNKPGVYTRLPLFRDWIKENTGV
Put plainly: Enzyme Inhibition Assay. As to conditions: pH 8.5; 22 °C. The method, then:
(§1) The enzyme reaction was initiated by adding fluorescence peptide substrate to reaction mixture containing enzyme and test compounds. […] Hydrolysis rates were recorded in presence of six to seven different concentrations of inhibitor.

For the next experiment, the target named is Prothrombin (Bos taurus, UniProt P00735). The experiment can be described thus: Enzyme Inhibition Assay. Particulars: pH 8.5; 22 °C. As to the method: as §1

`CC[C@H](C)[C@@H]1NC(=O)[C@@H]2CCCN2C(=O)[C@@H]2CCCN2C(=O)[C@H]([C@@H](C)CC)NC(=O)[C@H](CO)NC(=O)[C@H](CCCCN)NC(=O)[C@H]([C@@H](C)O)NC(=O)[C@H](CO)NC(=O)[C@H](CCCN=C(N)N)NC(=O)CNC(=O)[C@H](CC(=O)O)NC(=O)[C@@H]2CCCN2C(=O)[C@H](Cc2ccccc2)NC(=O)[C@H](CO)NC1=O` [2-[(1S,7S,10S,13S,16S,22S,25S,31S,34S,37S,40S,43S,46S)-40-(4-aminobutyl)-16-benzyl-10,46-bis[(2S)-butan-2-yl]-31-(3-carbamimidamidopropyl)-37-[(1R)-1-hydroxyethyl]-13,34,43-tris(hydroxymethyl)-2,8,11,14,17,23,26,29,32,35,38,41,44,47-tetradecaoxo-3,9,12,15,18,24,27,30,33,36,39,42,45,48-tetradecaazatetracyclo[46.3.0.0^{3,7}.0^{18,22}]henpentacontan-25-yl]acetic acid]: the Ki (usually a dissociation constant, usually derived from enzyme kinetics or from competition with a known ligand) in experiment [1] is 107 µM; on Prothrombin it was 40.4 µM.

The compound `CC[C@H](C)[C@@H]1NC(=O)[C@@H]2CCCN2C(=O)[C@@H]2CCCN2C(=O)[C@H]([C@@H](C)CC)NC(=O)[C@H](CO)NC(=O)[C@H](CCCCN)NC(=O)[C@H]([C@@H](C)O)NC(=O)[C@@H]2CSSC[C@H](NC1=O)C(=O)N[C@@H](Cc1ccccc1)C(=O)N1CCC[C@H]1C(=O)N[C@@H](CC(=O)O)C(=O)NCC(=O)N[C@@H](CCCNC(=N)N)C(=O)N2` [2-[(1R,4S,7S,13S,19S,22S,25S,28S,31R,34S,40S,43S,49S)-25-(4-aminobutyl)-49-benzyl-4,19-bis[(2S)-butan-2-yl]-34-(3-carbamimidamidopropyl)-28-[(1R)-1-hydroxyethyl]-22-(hydroxymethyl)-3,6,12,18,21,24,27,30,33,36,39,42,48,51-tetradecaoxo-53,54-dithia-2,5,11,17,20,23,26,29,32,35,38,41,47,50-tetradecaazapentacyclo[29.20.4.0^{7,11}.0^{13,17}.0^{43,47}]pentapentacontan-40-yl]acetic acid] registered a Ki in experiment [1] of 0.1 µM.

In experiment [1], `CC[C@H](C)[C@@H]1NC(=O)[C@@H]2CCCN2C(=O)[C@@H]2CCCN2C(=O)[C@H]([C@@H](C)CC)NC(=O)[C@H](CO)NC(=O)[C@H](CCCN)NC(=O)[C@H]([C@@H](C)O)NC(=O)[C@@H]2CSSC[C@H](NC1=O)C(=O)N[C@@H](Cc1ccccc1)C(=O)N1CCC[C@H]1C(=O)N[C@@H](CC(=O)O)C(=O)NCC(=O)N[C@@H](CCCN=C(N)N)C(=O)N2` [2-[(1R,4S,7S,13S,19S,22S,25S,28S,31R,34S,40S,43S,49S)-25-(3-aminopropyl)-49-benzyl-4,19-bis[(2S)-butan-2-yl]-34-(3-carbamimidamidopropyl)-28-[(1R)-1-hydroxyethyl]-22-(hydroxymethyl)-3,6,12,18,21,24,27,30,33,36,39,42,48,51-tetradecaoxo-53,54-dithia-2,5,11,17,20,23,26,29,32,35,38,41,47,50-tetradecaazapentacyclo[29.20.4.0^{7,11}.0^{13,17}.0^{43,47}]pentapentacontan-40-yl]acetic acid] returned a Ki above 250 µM.

The compound `CC[C@H](C)[C@@H]1NC(=O)[C@@H]2CCCN2C(=O)[C@@H]2CCCN2C(=O)[C@H]([C@@H](C)CC)NC(=O)[C@H](CO)NC(=O)[C@H](CCCCN)NC(=O)[C@H]([C@@H](C)O)NC(=O)[C@@H]2CCSSC[C@H](NC1=O)C(=O)N[C@@H](Cc1ccccc1)C(=O)N1CCC[C@H]1C(=O)N[C@@H](CC(=O)O)C(=O)NCC(=O)N[C@@H](CCCN=C(N)N)C(=O)N2` [2-[(1R,4S,7S,13S,19S,22S,25S,28S,31S,34S,40S,43S,49S)-25-(4-aminobutyl)-49-benzyl-4,19-bis[(2S)-butan-2-yl]-34-(3-carbamimidamidopropyl)-28-[(1R)-1-hydroxyethyl]-22-(hydroxymethyl)-3,6,12,18,21,24,27,30,33,36,39,42,48,51-tetradecaoxo-53,54-dithia-2,5,11,17,20,23,26,29,32,35,38,41,47,50-tetradecaazapentacyclo[29.20.5.0^{7,11}.0^{13,17}.0^{43,47}]hexapentacontan-40-yl]acetic acid] had a Ki in experiment [1] of 0.38 µM.
